Patent publication US20060088545A1, “Use of inhibitors of the protease of the human immunodeficiency virus (hiv) to block cell migration and/or invasion, tissue infiltration and oedema for the therary of diseases associated therewith” (priority 2001, published 2006)

Tests used:
smooth muscle cells = experiment: Cell growth assay of smooth muscle cells in response to bFGF; format: cell-based, human
Description: Assays have been essentially performed as described in key to FIGS. 1 and 3. […] Data of duplicate experiments (mean) are shown.

[1] = test system: breast carcinoma (MDA-MB468) cells; experiment: Tumour lesions induced by MDA-MB468 cells in nude mice; format: in vivo; conditions: 5×10^6 cells/site; daily treatment
Description: FIG. 28. […] The treatment with HIV-PI or saline solution continued until sacrifice. The size of the lesions present at the injection site was evaluated daily by caliper measurement. External lesion area was then calculated as the product of the two major lesion diameters. The mean size (cm^2) of the lesions present at the injection site is shown.
(§1) To determine whether HIV-PI could inhibit the growth of malignant solid and lymphoid tumours, nude mice were inoculated with hepato-carcinoma cells (SK-Hep-1), lung carcinoma cells (A549), breast adeno-carcinoma cells (MDA-MB-468), myelo-monocytic leukaemia cells (U937), and T lymhocytic leukaemia cells (Jurkat).

[2] = test system: primary macrovascular (umbilical vein) endothelial cells (HUVEC); experiment: Boyden chamber invasion assay of HUVEC in response to bFGF; format: cell-based, human; conditions: 0.1, 1 or 10 μM; bFGF 50 ng/ml; 6 hours
Description: Both assays were performed on endothelial cells.
Both assays were performed by the Boyden chamber separated in two compartments by polycarbonate filters with 12 μm pores (Nucleoprobe, Cabin John, Md.), coated with collagen IV (Collaborative Biomedical Products) for migration, or with collagen IV and Matrigel together for invasion, as described previously (Barillari et al., 1999b). […] After 5 hours (migration) or 6 hours (Invasion) of incubation, the non-migrated cells present on the top surface of the filters were mechanically removed, while the migrated cells on the bottom surface were fixed in methanol and stained with toluidine blue (Sigma Chemical Co., St. Louis, Mo.). The cells present in 5-10 microscopic fields of the filters, chosen at random, were counted as described previously (Barillari et al., 1999b).
The concentrations of HIV-PI used were the same as those present in plasma of treated patients (Deeks et al., 1997).

KS cells = experiment: KS cell invasion of matrigel, Boyden chamber, bFGF chemo-attractant; format: cell-based, human; conditions: KS3, KS8, KS12 strains; dose-dependent
Description: Both drugs inhibited the capacity of the KS cells to invade the Matrigel membrane in a dose-dependent manner. In particular, both the HIV-PI inhibited invasion as compared to the levels observed in control KS cells (p<0.05).
The assay was performed as described in FIG. 3. […] The cells were harvested and then plated in duplicate (5×10^5 in a culture medium containing 0.05% BSA) in the upper compartment of the Boyden chamber, always in the presence of HIV-PI or buffer. bFGF (20 ng/ml) was placed in the bottom compartment as a chemo-attractant.
After 6 hours the cells that invaded the matrigel membrane were stained and counted as described in the key to FIG. 3.
In contrast, both drugs inhibited KS cell capability of invading a matrigel substrate in a dose-dependent manner. In particular, both HIV-PI inhibit the invasion of KS cells by 30-40% (p<0.05) (Table 4 and FIG. 13).
Migration and invasion assays were carried out essentially as detailed in the key to FIGS. 2 and 3.

[3] = test system: hepato-carcinoma (SK-Hep-1) cells; experiment: Invasion assay of SK-Hep-1 cells in response to bFGF; format: cell-based, human; conditions: 0.1, 1 or 10 μM
Description: (§2) The invasion assays were performed in the Boyden chamber. Polycarbonate filters (8 μM pores; Nucleoprobe, Cabin John, Md.) were coated first with collagen IV and then with Matrigel (Collaborative Biomedical Products) as described previously (Barillari et al., 1999b). […] Human recombinant bFGF (50 ng/ml) was placed in the lower compartment as chemo-attractant. […] Louis, Mo.). Ten random filter fields were counted by light microscopy as described previously (Barillari et al., 1999b).

[4] = test system: lesions promoted by bFGF and HIV-1 Tat combined; experiment: KS-like lesions promoted by bFGF and HIV-1 Tat combined in nude mice; format: in vivo; conditions: bFGF 1 μg + Tat 10 μg
Description: Here are listed the number (N.) of mice that developed lesions with respect to the number (N.) of mice inoculated, and the percentage (%) of mice that developed lesions.

[5] = test system: lung carcinoma (A549) cells; experiment: Lesions induced by A549 cells in nude mice; format: in vivo; conditions: 5×10^6 cells/site; daily treatment
Description: The treatment with HIV-PI or saline solution continued until sacrifice. The size of the lesions present at the injection site was evaluated daily by caliper measurement. External lesion area was then calculated as the product of the two major lesion diameters. The mean size (cm^2) of the lesions present at the injection site is shown.
as §1

[6] = test system: lung carcinoma (A549) cells; experiment: Invasion assay of A549 cells in response to bFGF; format: cell-based, human; conditions: 0.1, 1 or 10 μM
Description: as §2, with “([…]” for “(8”

[7] = test system: angioproliferative KS-like lesions induced by KS cells; experiment: KS-like lesions induced by inoculation of KS cells in nude mice (drug pre-treatment); format: in vivo; conditions: KS cells 3×10^6; treatment starting 2 days before cell inoculation
Description: At the time of sacrifice, the sites of inoculation were examined to check for the presence of macroscopic angioproliferative lesions as described in the key to FIG. 12 and Table 5.
These angioproliferative lesions are transient, of murine origin and are developed in response to cytokines, such as bFGF and VEGF, IL-1, IL-6 and others, released by the KS cells (Ensoli et al., 1989; Ensoli et al., 1994a; Ensoli et al., 1994b; Fiorelli et al., 1995; Samaniego et al., 1995; Samaniego et al., 1997; Sgadari et al., 2000). In fact, at least in initial phase, KS is a reactive angioproliferative diseases and not a true neoplasm (Ensoli and Sturzl, 1998).
At the time of sacrifice, the sites of inoculation were examined to check for the presence of macroscopic angioproliferative KS-like lesions as described in the key to Table 1. Here are listed the number (No.) of mice that developed lesions with respect to the number (No.) of mice inoculated, and the percentage (%) of mice that developed lesions.

| SMILES | proliferation in response to bFGF (smooth muscle cells) | development of tumour lesions (lesion size) [1] | invasion induced by bFGF [2] | invasive capacity of KS cells (KS cells) | invasive capacity in response to bFGF [3] | No. of macroscopic vascular lesions/No. of mice injected [4] | mice that developed lesions (%) [4] [%] | development of lesions (lesion size) [5] | invasive capacity in response to bFGF [6] | No. of mice with macroscopic lesions/No. of inoculated mice [7] | mice with macroscopic lesions (%) [7] [%] |
| --- | --- | --- | --- | --- | --- | --- | --- | --- | --- | --- | --- |
| CC(C)(C)NC(=O)[C@@H]1CN(Cc2cccnc2)CCN1C[C@@H](O)C[C@@H](Cc1ccccc1)C(=O)N[C@H]1c2ccccc2C[C@H]1O [Indinavir, indinavir] | do not interfere | inhibit | block | inhibit | inhibit | 5/10 | 50 | inhibit | inhibit | 7/16 | 43 |
| CC(C)(C)NC(=O)[C@@H]1C[C@@H]2CCCC[C@@H]2CN1C[C@@H](O)[C@H](Cc1ccccc1)NC(=O)[C@H](CC(N)=O)NC(=O)c1ccc2ccccc2n1 [Saquinavir, saquinavir] | do not interfere | inhibit | block | inhibit | inhibit | 2/10 | 20 | inhibit | inhibit | 4/16 | 25 |
